Data from patent US8841413B2, “Antidiabetic compounds” (Cadila Healthcare Limited, priority 2006, dated 2014).

Key:
[1] = biological target: T1, human glucagon receptor (Homo sapiens, UniProt P47871); test: In vitro human glucagon antagonist activity (inhibition of cAMP production), CHO/human glucagon R cells; type: cell-based
T1 construct: The full-length cDNA was cloned in pcDNA3.1(Invitrogen); expressed in transfected cells
Protocol: CHO cells were grown in Ham's F12 medium containing L-Glutamine (2 mM), HEPES (25 mM), NaHCO3 (1.1 g/L) and supplemented with newborn Calf Serum (NBCS; 10%), Penicillin (50 U/ml (v/v)) and Streptomycin (50 ug/ml (v/v)). Cells were split every 3 days 1:8.
The full-length cDNA was cloned in pcDNA3.1(Invitrogen). […] Clones expressing the receptor were generated by G418 (800 μg/ml active, Sigma) selection. The stable clones were thereafter maintained at 500 ug/ml (G418). The selected clone was used between passages 9-25 for cAMP assays.
The trypsin was inactivated using Ham's F12 medium containing 10% NBCS and the cells were suspended in 2 ml of complete medium. […] The medium was aspirated off from the 12 well plate and the cells were washed once using Ham's F12 (plain). […] After the incubation; the medium was removed and cells were washed once with plain Ham's F12. Subsequently, the cells were lysed by adding 500 ul of ice cold 0.1 N HCl to each well and shaking for 30 minutes at 200 rpm. The cells were then scrapped, the lysate was collected in micro centrifuge tubes and centrifuged at 12000 rpm for 10 min to remove the debris. 300 ul of supernatant from each micro-centrifuge tube was then removed into a glass tube and dried under N2 for 30 min, for cAMP estimation. The total cAMP was estimated from the sample according to the manufacturer's protocol using Cyclic AMP immunoassay kit (R&D systems, Minneapolis: MN). The remaining supernatant is used to determine the protein concentration using micro BCA (Sigma). Data is calculated as percent of control (Vehicle: water) and expressed as Mean+SD.

[2] = Stability in human plasma; type: in vitro ADME; settings: 2 μM, 37° C.
Outline: (§1)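 Samples are acid-quenched with TFA/H2O at 10% (v/v) before chromatographic analysis. The mobile phase runs at 1 mL/min over a column conditioned in TFA/H2O, and the UV trace is recorded at 206 nm. Each peak is picked by hand and characterised by ESI mass spectrometry.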

[3] = Stability against liver microsomes; type: in vitro ADME, human; settings: for % degradation in 24 h when incubated with liver microsomes: 2 μM, 37° C.; for half-life at 2 μM: human, human liver microsomes, pH 7.8, 37° C., read-out: half-life (t1/2) with liver microsomes
Outline: as §1

[4] = Stability in simulated gastric fluid; type: in vitro ADME; settings: 37° C., pH 1.5, pepsin; for % degradation in 24 h when incubated with simulated gastric fluid: 2 μM; for half-life at 2 μM: simulated gastric fluid with pepsin, read-out: half-life (t1/2) in simulated gastric fluid
Outline: as §1

[5] = tested on: RIN5F (Rat Insulinoma) cells; test: In vitro glucose-dependent insulin secretion (RIN5F cell assay); type: cell-based; settings: 16.7 mM glucose load, mean ± S.D., n = 3
Protocol: After trypsinization, RIN5F cells were seeded at a concentration of 0.2×10^6·cells per well, in 12 well plates.
The supernatant was collected and the insulin amount was measured by ultra sensitive Rat insulin ELISA kit (Crystal Chem, Ill.). The protein was estimated in the supernatant using Bicinchoninic Acid kit, according to the manufacturer's protocol (Sigma Aldrich, Mo.). The total insulin content obtained in Pico-gram (pg) was divided with the total protein (μg) in order to normalize for differences in cell density between wells.

[6] = biological target: DPP IV (Homo sapiens, UniProt P27487); test: Stability against DPP IV enzyme; type: in vitro ADME; settings: 2 μM, 37° C., 24 h
Outline: as §1

[7] = Stability in simulated intestinal fluid; type: in vitro ADME; settings: 37° C.; for % degradation in 24 h when incubated with simulated intestinal fluid: 2 μM, pH 7.5; for half-life at 2 μM: simulated intestinal fluid, pH 7.5, read-out: half-life (t1/2) in simulated intestinal fluid
Outline: as §1

[8] = 1 nM test compound (fourth concentration column, between 100 nM and 10 μM) with saturated concentration of glucagon peptide
[9] = 1 nM test compound with saturated concentration of glucagon peptide
[10] = 10 nM test compound with saturated concentration of glucagon peptide
[11] = 100 nM test compound with saturated concentration of glucagon peptide
[12] = 10 μM test compound with saturated concentration of glucagon peptide

Sequence of DPP IV (P27487 whole entry, species assumed): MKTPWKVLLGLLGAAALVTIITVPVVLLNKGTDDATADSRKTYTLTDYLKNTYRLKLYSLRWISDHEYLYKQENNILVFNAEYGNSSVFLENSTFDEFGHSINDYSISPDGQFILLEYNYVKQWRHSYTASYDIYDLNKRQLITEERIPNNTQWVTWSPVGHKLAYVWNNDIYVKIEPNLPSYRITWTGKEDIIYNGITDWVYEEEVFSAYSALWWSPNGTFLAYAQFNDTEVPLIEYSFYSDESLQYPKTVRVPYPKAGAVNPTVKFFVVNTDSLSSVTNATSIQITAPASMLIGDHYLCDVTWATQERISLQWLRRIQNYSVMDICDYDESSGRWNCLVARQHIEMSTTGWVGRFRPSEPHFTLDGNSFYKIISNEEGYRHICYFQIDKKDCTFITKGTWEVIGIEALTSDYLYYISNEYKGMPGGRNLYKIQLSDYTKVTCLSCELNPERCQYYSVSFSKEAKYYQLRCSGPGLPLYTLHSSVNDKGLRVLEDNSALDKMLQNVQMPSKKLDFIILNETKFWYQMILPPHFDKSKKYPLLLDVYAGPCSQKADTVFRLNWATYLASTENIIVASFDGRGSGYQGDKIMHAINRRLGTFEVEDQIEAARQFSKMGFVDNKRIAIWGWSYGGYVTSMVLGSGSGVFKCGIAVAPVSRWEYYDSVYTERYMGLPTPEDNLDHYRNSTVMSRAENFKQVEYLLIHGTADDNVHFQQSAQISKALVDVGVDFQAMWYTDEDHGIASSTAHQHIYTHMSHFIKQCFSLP
T1 sequence (P47871 26-477): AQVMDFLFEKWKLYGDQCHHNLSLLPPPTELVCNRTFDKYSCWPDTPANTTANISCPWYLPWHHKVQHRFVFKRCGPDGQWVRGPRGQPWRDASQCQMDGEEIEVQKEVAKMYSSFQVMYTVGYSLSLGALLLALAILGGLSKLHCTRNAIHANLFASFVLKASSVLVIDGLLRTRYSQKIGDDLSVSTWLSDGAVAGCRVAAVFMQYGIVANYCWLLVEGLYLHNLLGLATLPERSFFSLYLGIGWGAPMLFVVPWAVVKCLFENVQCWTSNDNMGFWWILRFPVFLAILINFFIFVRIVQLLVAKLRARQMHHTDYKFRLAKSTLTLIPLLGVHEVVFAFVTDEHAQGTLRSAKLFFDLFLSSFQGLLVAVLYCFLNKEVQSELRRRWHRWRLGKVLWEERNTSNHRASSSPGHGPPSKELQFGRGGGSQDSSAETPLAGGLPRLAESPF

CCc1cc(OC)ccc1-c1ccc(CC(NC(=O)[C@H](CC(=O)O)NC(=O)[C@H](CO)NC(=O)[C@@H](NC(=O)[C@H](Cc2ccccc2)NC(=O)[C@@H](NC(=O)CNC(=O)[C@H](CCC(N)=O)NC(=O)[C@H](CO)NC(=O)[C@@H](N)Cc2c[nH]cn2)[C@@H](C)O)[C@@H](C)O)C(=O)NC(Cc2ccc(-c3ccccc3C)cc2)C(N)=O)cc1 (single isomer, unassigned) [compound 5]
Human Glucagon receptor antagonistic activity, inhibition of cAMP production of Glucagon peptide [1, 8]: 14 ± 0.03 pmol/ml/μg prt
Human Glucagon receptor antagonistic activity, inhibition of cAMP production of Glucagon peptide [1, 9]: 20 ± 0.06 pmol/ml/μg prt
Human Glucagon receptor antagonistic activity, inhibition of cAMP production of Glucagon peptide [1, 10]: 18 ± 0.09 pmol/ml/μg prt
Human Glucagon receptor antagonistic activity, inhibition of cAMP production of Glucagon peptide [1, 11]: 16 ± 0.01 pmol/ml/μg prt
Human Glucagon receptor antagonistic activity, inhibition of cAMP production of Glucagon peptide [1, 12]: 12 ± 0.01 pmol/ml/μg prt
half-life (t1/2) in human plasma [2]: (9) h
% degradation in 24 h when incubated with human plasma [2]: 78%
% degradation in 24 h when incubated with liver microsomes [3]: 100%
half-life at 2 μM [3]: 30 min
% degradation in 24 h when incubated with simulated gastric fluid [4]: 100%
half-life at 2 μM [4]: 30 min
Insulin secretion ([5]; 0.1 nM test compd.): 12.1 ± 0.52 pg/µg/h
Insulin secretion ([5]; 1 nM test compd.): 14.1 ± 0.16 pg/µg/h
Insulin secretion ([5]; 10 nM test compd.): 28.0 ± 0.36 pg/µg/h
% degradation in 24 h when incubated with DPP-IV enzyme [6]: 76%
% degradation in 24 h when incubated with simulated intestinal fluid [7]: 100%
half-life at 2 μM [7]: 30 min

CCc1cc(OC)ccc1-c1ccc(CC(NC(=O)[C@H](CC(=O)O)NC(=O)[C@H](CO)NC(=O)[C@@H](NC(=O)[C@H](Cc2ccccc2)NC(=O)[C@@H](NC(=O)CNC(=O)[C@H](CCC(N)=O)NC(=O)[C@H](CO)NC(=O)[C@@H](N)Cc2c[nH]cn2)[C@@H](C)O)[C@@H](C)O)C(=O)NC(Cc2ccc(-c3ccccc3F)cc2)C(N)=O)cc1 (single isomer, unassigned) [compound 7]
Human Glucagon receptor antagonistic activity, inhibition of cAMP production of Glucagon peptide [1, 8]: 0 pmol/ml/μg prt
Human Glucagon receptor antagonistic activity, inhibition of cAMP production of Glucagon peptide [1, 9]: 6 ± 0.02 pmol/ml/μg prt
Human Glucagon receptor antagonistic activity, inhibition of cAMP production of Glucagon peptide [1, 10]: 5 ± 0.03 pmol/ml/μg prt
Human Glucagon receptor antagonistic activity, inhibition of cAMP production of Glucagon peptide [1, 11]: 2 ± 0.61 pmol/ml/μg prt
Human Glucagon receptor antagonistic activity, inhibition of cAMP production of Glucagon peptide [1, 12]: 0 pmol/ml/μg prt
half-life (t1/2) in human plasma [2]: (9) h
% degradation in 24 h when incubated with human plasma [2]: 80%
% degradation in 24 h when incubated with liver microsomes [3]: 100%
half-life at 2 μM [3]: 30 min
% degradation in 24 h when incubated with simulated gastric fluid [4]: 100%
half-life at 2 μM [4]: 30 min
Insulin secretion ([5]; 0.1 nM test compd.): 11.1 ± 0.12 pg/µg/h
Insulin secretion ([5]; 1 nM test compd.): 13.1 ± 0.13 pg/µg/h
Insulin secretion ([5]; 10 nM test compd.): 19.0 ± 0.16 pg/µg/h
% degradation in 24 h when incubated with DPP-IV enzyme [6]: 77%
% degradation in 24 h when incubated with simulated intestinal fluid [7]: 100%
half-life at 2 μM [7]: 30 min

CCc1cc(OC)ccc1-c1ccc(CC(NC(=O)[C@H](CC(=O)O)NC(=O)[C@H](CO)NC(=O)[C@@H](NC(=O)[C@H](Cc2ccccc2)NC(=O)[C@@H](NC(=O)CNC(=O)[C@H](CCC(N)=O)NC(=O)[C@H](CO)NC(=O)[C@@H](N)Cc2c[nH]cn2)[C@@H](C)O)[C@@H](C)O)C(=O)NC(Cc2ccc(-c3ccccc3C(F)(F)F)cc2)C(N)=O)cc1 (single isomer, unassigned) [compound 8]
Human Glucagon receptor antagonistic activity, inhibition of cAMP production of Glucagon peptide [1, 8]: 0 pmol/ml/μg prt
Human Glucagon receptor antagonistic activity, inhibition of cAMP production of Glucagon peptide [1, 9]: 4 ± 0.01 pmol/ml/μg prt
Human Glucagon receptor antagonistic activity, inhibition of cAMP production of Glucagon peptide [1, 10]: 2 ± 0.17 pmol/ml/μg prt
Human Glucagon receptor antagonistic activity, inhibition of cAMP production of Glucagon peptide [1, 11]: 0 pmol/ml/μg prt
Human Glucagon receptor antagonistic activity, inhibition of cAMP production of Glucagon peptide [1, 12]: 0 pmol/ml/μg prt
half-life (t1/2) in human plasma [2]: (9) h
% degradation in 24 h when incubated with human plasma [2]: 78%
% degradation in 24 h when incubated with liver microsomes [3]: 100%
half-life at 2 μM [3]: 30 min
% degradation in 24 h when incubated with simulated gastric fluid [4]: 100%
half-life at 2 μM [4]: 30 min
Insulin secretion ([5]; 0.1 nM test compd.): 12.6 ± 0.20 pg/µg/h
Insulin secretion ([5]; 1 nM test compd.): 15.9 ± 0.31 pg/µg/h
Insulin secretion ([5]; 10 nM test compd.): 28.4 ± 0.11 pg/µg/h
% degradation in 24 h when incubated with DPP-IV enzyme [6]: 76%
% degradation in 24 h when incubated with simulated intestinal fluid [7]: 100%
half-life at 2 μM [7]: 30 min

CCc1cc(OC)ccc1-c1ccc(CC(NC(=O)[C@H](CC(=O)O)NC(=O)[C@H](CO)NC(=O)[C@@H](NC(=O)[C@H](Cc2ccccc2)NC(=O)[C@@H](NC(=O)CNC(=O)[C@H](CCC(N)=O)NC(=O)[C@H](C)NC(=O)[C@@H](N)Cc2c[nH]cn2)[C@@H](C)O)[C@@H](C)O)C(=O)NC(Cc2ccc(-c3ccccc3C)cc2)C(N)=O)cc1 (single isomer, unassigned) [compound 9]
Human Glucagon receptor antagonistic activity, inhibition of cAMP production of Glucagon peptide [1, 8]: 8 ± 0.02 pmol/ml/μg prt
Human Glucagon receptor antagonistic activity, inhibition of cAMP production of Glucagon peptide [1, 9]: 18 ± 0.07 pmol/ml/μg prt
Human Glucagon receptor antagonistic activity, inhibition of cAMP production of Glucagon peptide [1, 10]: 16 ± 0.01 pmol/ml/μg prt
Human Glucagon receptor antagonistic activity, inhibition of cAMP production of Glucagon peptide [1, 11]: 12 ± 0.03 pmol/ml/μg prt
Human Glucagon receptor antagonistic activity, inhibition of cAMP production of Glucagon peptide [1, 12]: 6 ± 0.08 pmol/ml/μg prt
half-life (t1/2) in human plasma [2]: (9) h
% degradation in 24 h when incubated with human plasma [2]: 75%
% degradation in 24 h when incubated with liver microsomes [3]: 100%
half-life at 2 μM [3]: 30 min
% degradation in 24 h when incubated with simulated gastric fluid [4]: 100%
half-life at 2 μM [4]: 30 min
Insulin secretion ([5]; 0.1 nM test compd.): 11.8 ± 0.50 pg/µg/h
Insulin secretion ([5]; 1 nM test compd.): 14.9 ± 0.11 pg/µg/h
Insulin secretion ([5]; 10 nM test compd.): 27.9 ± 0.31 pg/µg/h
% degradation in 24 h when incubated with DPP-IV enzyme [6]: 74%
% degradation in 24 h when incubated with simulated intestinal fluid [7]: 100%
half-life at 2 μM [7]: 30 min
